Experimental data reported in patent US8648105B2, “Diarylthiohydantoin compounds” (The Regents of the University of California, priority 2006, dated 2014).
Residue numbers refer to the chain shown, from its start.

What was measured:
[1] = Pharmacokinetics, drug concentration in mouse serum/plasma by HPLC; settings: in vivo
Procedure: Mice were divided into groups of three for each time points. Two mice were not treated with drug and two other mice were treated with vehicle solution. Each group was treated with 10 mg per kilogram of body weight.
The drug was dissolved in a mixture 1:5:14 of DMSO:PEG400: H20. (Vehicle solution) and was administered into mice through the tail vein. The animals are warmed under a heat lamp for approximately 20 minutes prior to treatment to dilate their tail vein. […] After drug administration, the animals were euthanized via CO2 inhalation at different timepoints: 5 nm, 30 nm, 2 h, 6 h, 16 h. Animals were immediately bleed after exposure to CO2 via cardiac puncture (1 ml BD syringe+27 G ⅝ needle).
The samples for HPLC analysis were prepared according to the following procedure:
Blood cells were separated from serum by centrifugation.
To 400 μl of serum were added 80 μl of a 10 μM solution of an internal standard and 520 μl of acetonitrile. Precipitation occurred.
The mixture was vortexed for 3 minutes and then placed under ultrasound for 30 minutes.
The solid particles were filtered off or were separated by centrifugation.
The filtrate was dried under an argon flow to dryness.

AR [2] = type: cell-based; settings: FIG. 24
Procedure: (§1) The compounds were subjected to tests using an artificial AR response reporter system in a hormone refractory prostate cancer cell line. […] After two days of incubation, reporter activities were assayed.

LogP = type: physicochemical
[3] = Ranking of compounds in tiers for utility in treating prostate cancer
Source text: The placement of compounds into tiers was based on available data coupled with analytical judgment. Data considered included in vitro assays (AR response reporter system in LNCaP cell line, PSA level measurement, MTS mitochondrial assay) and in vivo experiments (tumor size measured directly or by emission induced by luciferase reporter gene, pharmacokinetic assays based on blood plasma levels). Not every compound was subjected to each assay. Not all data that was generated is shown. Judgment was applied in ranking compounds relative to each other for their utility in treating prostate cancer, in particular when ranking two compounds for which the same experiments were not performed.

AR [4] = target: T1, AR (Homo sapiens, UniProt P10275); type: cell-based; design: Fold induction, AR response reporter
T1 sequence (P10275 1-920): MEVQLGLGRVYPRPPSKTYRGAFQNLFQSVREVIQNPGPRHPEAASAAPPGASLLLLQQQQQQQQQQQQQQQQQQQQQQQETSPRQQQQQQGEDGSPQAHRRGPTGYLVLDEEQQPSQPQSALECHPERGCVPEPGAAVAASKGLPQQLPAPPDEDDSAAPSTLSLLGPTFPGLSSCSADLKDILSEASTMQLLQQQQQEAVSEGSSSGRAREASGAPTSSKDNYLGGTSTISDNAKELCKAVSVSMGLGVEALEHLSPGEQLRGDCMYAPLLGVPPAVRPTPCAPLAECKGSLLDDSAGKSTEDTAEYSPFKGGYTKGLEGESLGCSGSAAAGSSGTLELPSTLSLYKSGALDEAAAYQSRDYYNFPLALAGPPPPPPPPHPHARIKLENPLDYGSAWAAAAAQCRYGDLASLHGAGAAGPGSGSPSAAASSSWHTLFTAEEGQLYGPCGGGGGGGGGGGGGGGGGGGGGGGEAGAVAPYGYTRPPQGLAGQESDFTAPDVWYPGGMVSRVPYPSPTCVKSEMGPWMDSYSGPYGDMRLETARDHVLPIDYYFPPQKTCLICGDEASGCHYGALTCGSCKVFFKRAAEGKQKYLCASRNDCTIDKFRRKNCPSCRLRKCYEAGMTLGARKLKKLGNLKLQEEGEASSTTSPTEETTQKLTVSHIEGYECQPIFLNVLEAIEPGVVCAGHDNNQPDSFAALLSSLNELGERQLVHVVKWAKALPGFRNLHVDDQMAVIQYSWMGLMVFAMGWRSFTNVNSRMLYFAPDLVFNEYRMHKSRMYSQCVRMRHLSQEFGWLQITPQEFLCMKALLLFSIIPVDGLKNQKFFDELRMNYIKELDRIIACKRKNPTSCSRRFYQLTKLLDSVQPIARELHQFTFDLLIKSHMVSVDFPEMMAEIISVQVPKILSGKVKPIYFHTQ
Procedure: It is well established that PSA levels are indicators of AR activities in prostate cancer. […] The LNCaP-AR cells are a line of lymph node carcinoma of prostate cells transduced with a plasmid that makes express androgen receptors. […] After four days incubation, secreted PSA levels were assayed using PSA ELISA kits (American Qualex, San Clemente, Calif.)

androgen receptor = target: T2, androgen receptor (Homo sapiens, UniProt P10275, T878A); settings: 10 uM (R1881 1 nM), LNCaP
T2 sequence (P10275 1-920 T878A): T1 sequence (P10275 1-920) with T878A

AR [5] = target: T1, AR; type: cell-based; design: Fold induction, AR response reporter; settings: for inhibitory activity on AR response reporter: hormone refractory LNCaP-AR
Procedure: as §1

LIAR cell line = assay: Luciferase activity of the LIAR cell line (FIG. 25); type: cell-based; settings: 125 nmol to 1000 nmol
Source text: FIG. 25 is a graph of luciferase activity of the LIAR cell line dosed with various compounds administered at concentrations ranging from 125 nmol to 1000 nmol.
The inventors have determined that what might appear to be a small change in the structure of hydantoin compounds may result in a large change in that compound's performance in treating prostate cancer.

AR [6] = target: T1, AR; type: cell-based; design: Fold induction, AR response reporter; settings: AR over expressed LNCaP, absence of R1881
AR [7] = target: T1, AR; type: cell-based; design: Fold induction, AR response reporter; settings: LN-AR, absence of R1881
Procedure: Activities of AR response reporter were measured.

DU-145 cells = assay: MTS growth assay in DU-145 cells; type: cell-based; settings: DU-145, lacks AR expression
3T3 = assay: Growth effect on 3T3 cells; type: cell-based; settings: 3T3 normal mouse fibroblast cell line
MCF7 = assay: Growth effect on MCF7 cells; type: cell-based; settings: MCF7 breast cancer cells
SkBr3 = assay: Growth effect on SkBr3 cells; type: cell-based; settings: SkBr3 breast cancer cells

CNC(=O)CCCc1ccc(N2C(=S)N(c3ccc(C#N)c(C(F)(F)F)c3)C(=O)C23CCC3)cc1 [NC48, 4-{4-[7-(4-Cyano-3-trifluoromethylphenyl)-8-oxo-6-thioxo-5,7-diaza-spiro[3.4]oct-5-yl]-phenyl}-N-methyl-butyramide]
pharmacokinetic behavior, residence time in blood [1]: metabolize fast | IC50 (comparison) (AR [2]): much lower than the IC50 for bicalutamide | logP (LogP): 3.44 | activity remarks in the ranking [3]: particularly advantageous | rank by relative PSA level, most active to least active (AR [4]; 500 nM): NC50>NC48>NC7>NC43>NC44>NC49>NC50>NC45>bicalutamide | decrease in PSA level of LNCaP-AR cells (comparison) (AR [4]; 1000 nM): greater decrease in PSA level of LNCaP-AR cells than NC43, NC44, and NC50 | PSA levels (AR [4]; LN-AR cells, FIG. 23): PSA levels decreased | PSA level (comparison) (AR [4]; LN/AR cell line, 125 nmol to 1000 nmol): less than the PSA level upon exposure to NC42 and NC46

Cc1ccc(N2C(=S)N(c3ccc(C#N)c(Cl)c3)C(=O)C2(C)C)cc1 [NC107]
activity remarks in the ranking [3]: very poor activity

Cc1ccc(N2C(=S)N(c3ccc(C#N)c(I)c3)C(=O)C2(C)C)cc1 [NC63]
activity remarks in the ranking [3]: good activity

C[C@]1(O)CC[C@H]2[C@@H]3CCC4=CC(=O)CCC4=C3C=C[C@@]21C [R1881, methyltrienolone, reference compound]
androgen receptor nuclear translocation (androgen receptor): nuclear translocation of the androgen receptor occurred | induction of secreted PSA level (AR [4]): strongly induced

CNC(=O)c1ccc(N2C(=S)N(c3ccc(C#N)c(C(F)(F)F)c3)C(=O)C23CCC3)cc1 [NC77]
luciferase activity in LNCaP-AR cells (AR [5]; 125 nM to 1000 nM, FIG. 3): acted to reduce luciferase activity | rank by relative luciferase activity, most active to least active (AR [5]; 500 nM, FIG. 3): NC67>NC68>NC66>NC69>NC77=NC53>bicalutamide | luciferase activity (comparison) (LIAR cell line): less than the luciferase activity upon exposure to NC98

CN1C(=S)N(c2ccc(C#N)c(C(F)(F)F)c2)C(=O)C12CCCC2 [NC26, 4-(1-methyl-4-oxo-2-thioxo-1,3-diazaspiro[4.4]non-3-yl)-2-trifluoromethylbenzonitrile, reference compound]
inhibitory activity on AR response reporter (AR [5]): no inhibitory activities | agonistic activity on secreted PSA (AR [6]): stimulated PSA expression | agonistic activity on AR response reporter (AR [7]): strongly activated AR

Cc1ccc(N2C(=S)N(c3ccc(C#N)c(C(F)(F)F)c3)C(=O)C2(C)C)cc1 [NC2, 4-[3-(4-methylphenyl)-4,4-dimethyl-5-oxo-2-thioxoimidazolidin-1-yl]-2-trifluoromethyl-benzonitrile]
growth inhibitory effect (DU-145 cells): no growth inhibitory effect | growth effect (3T3): no growth effect | growth effect (MCF7): no growth effect | growth effect (SkBr3): no growth effect

CN1C(=S)N(c2ccc(C#N)c(C(F)(F)F)c2)C(=O)C12CCC2 [NC24, 4-(5-methyl-8-oxo-6-thioxo-5,7-diazaspiro[3.4]oct-7-yl)-2-trifluoromethylenzonitrile, reference compound]
inhibitory activity on AR response reporter (AR [5]): no inhibitory activities | agonistic activity on secreted PSA (AR [6]): stimulated PSA expression | agonistic activity on AR response reporter (AR [7]): strongly activated AR

CN1C(=O)N(c2ccc(C#N)c(C(F)(F)F)c2)C(=O)C12CCC2 [NC25, 4-(5-methyl-6,8-dioxo-5,7-diazaspiro[3.4]oct-7-yl)-2-trifluoromethylbenzonitrile, reference compound]
inhibitory activity on AR response reporter (AR [5]): no inhibitory activities | agonistic activity on secreted PSA (AR [6]): stimulated PSA expression | agonistic activity on AR response reporter (AR [7]): strongly activated AR
